Article PMC8704606, “The Artemiside-Artemisox-Artemisone-M1 Tetrad: Efficacies against Blood Stage P. falciparum Parasites, DMPK Properties, and the Case for Artemiside” (Pharmaceutics, 2021)
Read-outs that look alike come from different tables or passages of the source.

Key:
P. falciparum W2 = system: P. falciparum W2; set-up: method as in ref S3; conditions: [3H]-hypoxanthine assay; ref S3; cited from earlier work
[1] = system: CQ-resistant P. yoelii NS strain; conditions: cited from earlier work; for P. yoelii ED90 po / P. yoelii ED90 sc: Peters four-day test, mice, ref S4 (24); for P. yoelii ED90 sc: subcutaneous; for P. yoelii artesunate index sc: ref S4
P. berghei ANKA strain = conditions: cited from earlier work; for outcome of combination with piperaquine: P. berghei ANKA infected mice, ip 0.66 mg/kg with piperaquine 10 mg/kg
P. berghei sporozoites = conditions: cited from earlier work; for Maximum inhibition % P. berghei sporozoites: ref S3; for IC50: luciferase-expressing P. berghei ANKA GFP-Luc-SMcon sporozoites in HepG2 cells, 48 h, ± SD, ref S3 (7)
[2] = system: late-stage (LG) Pf NF54 gametocytes; set-up: method as in PMID 29866868; conditions: late-stage gametocytes >90% stages IV-V; dose responses obtained at 72 h; ± SEM; cited from earlier work
[3] = system: P. falciparum asexual blood stage artemisinin-resistant clone ARC08-22 (4G) carrying the PfKI3 C580Y mutation; set-up: method as in ref S3; conditions: ref S3, cited from earlier work; for IC50 / IC90: 48 h life cycle, PfKI3 C580Y
[4] = cited from earlier work
[5] = system: type II tachyzoites (PRU-Luc-GFP); conditions: sc 10 mg/kg/d for 8 days; cited from earlier work
[6] = set-up: method as in PMID 34097488; conditions: cited from earlier work
[7] = system: asexual blood stages of Pf NF54 (drug sensitive); set-up: method as in PMID 29866868, PMID 31998692; conditions: asexual blood stage Pf NF54, CQ sensitive; SYBR Green I; ± SEM; cited from earlier work
[8] = system: asexual blood stages of Pf W2 (drug resistant); set-up: method as in PMID 29866868, PMID 31998692; conditions: cited from earlier work; for IC50: asexual blood stage Pf W2, multidrug resistant, SYBR Green I, ± SEM
TM-C2B = system: TM-C2B; set-up: method as in ref S2; conditions: [3H]-hypoxanthine assay; ref S2; read-out: Antimalarial activities IC50 TM-C2B; cited from earlier work
[9] = system: late-stage (LG) Pf NF54 gametocytes; assay: Luciferase assay, late-stage gametocytes; type: cell-based, Plasmodium falciparum; conditions: for IC50: late-stage gametocytes >90% stages IV-V, dose response obtained at 72 h, ± SEM
Description: For screening artemisox and M1 against early- (EG) and late-stage (LG) gametocytes, the luciferase assay with transgenic NF54-pfs16-GFP-Luc and NF54-Mal8p1.16-GFP-Luc parasite lines was used. With this assay, stage-specificity of gametocytocidal action was established (Table 2). Dose-response curves are in Figures S1d,e and S2d in the Supplementary Material 1. […] As was observed previously for artemisone and artemiside, dose responses for artemisox and M1 could not be obtained at 48 h against late-stage gametocytes.
The same reference compounds with the exception of CQ were used for the early- and late-stage gametocyte assays. Gametocytocidal activity was determined using the transgenic NF54-pfs16-GFP-Luc and NF54-Mal8p1.16-GFP-Luc reporter lines. Compounds were initially screened for activity at a fixed drug concentration of 1 µM, with dose responses subsequently determined using 2-fold serial drug dilutions for 48 h against early-stage gametocytes (day 5 post-induction population, ≥95% stages II–III) and 10-fold serial drug dilutions for 48 h or 72 h against late-stage gametocytes (day 10 post-induction population, ≥90% late-stage [stages IV–V]) (2 to 3% gametocytemia, 2% hematocrit) at 37 °C under 90% N2, 5% CO2, and 5% O2 [6]. No drug washout steps were performed during the drug incubation periods prior to the assays. In all cases, an interference assay was run in parallel to eliminate the possibility of false positives arising through compound interference with the luciferase readout.

[10] = system: TM93-C1088 (atovaquone and CQ resistant); set-up: method as in ref S2; conditions: [3H]-hypoxanthine assay; ref S2; read-out: Antimalarial activities IC50 TM93-C1088; cited from earlier work
D6 (CQ sensitive) = system: D6 (CQ sensitive); set-up: method as in ref S2; conditions: [3H]-hypoxanthine assay; ref S2; read-out: Antimalarial activities IC50 D6; cited from earlier work
[11] = system: asexual blood stages of Pf NF54 (drug sensitive); assay: SYBR Green I proliferation assay, asexual blood stages, Pf NF54; type: cell-based, Plasmodium falciparum
Description: Dose response curves are in Figures S1a–c and S2a–c in the Supplementary Material 1. Table 1 also includes the historical values for artemiside and artemisone obtained using the same assay.
All other assay conditions are as previously described. Compound working solutions were prepared from a 10 mM stock solution in 100% (vol/vol) dimethyl sulfoxide (DMSO, Sigma-Aldrich) in supplemented RPMI 1640 medium containing AlbuMAX II with a final DMSO concentration of 0.1% (vol/vol), previously determined to be nontoxic to blood stage asexual parasites and gametocytes. The dose-responses of the amino-artemisinins were assayed using a 2-fold serial drug dilution on in vitro 95% ring-stage parasites at 37 °C under 90% N2, 5% CO2, and 5% O2 atmospheric conditions, detecting SYBR green I fluorescence as the proliferative marker following a 96 h drug treatment (1% parasitemia and 1% hematocrit) using a GloMaxR-Multi+ Detection System (Promega). No drug washout steps were performed during drug incubation periods prior to the assays. Activity against the Pf drug-sensitive NF54 strain and the drug-resistant K1 (resistant to CQ, quinine, pyrimethamine, and cycloguanil) and W2 (resistant to CQ, quinine, pyrimethamine, and cycloguanil) strains was evaluated. Data analysis was performed using GraphPad Prism (version 6), intra-assay variability was monitored with Z-factors, and acceptable interassay reproducibility was determined from the percent coefficient of variation (CV).

[12] = 10 mg/kg/d for 14 days by gavage in sesame oil
[13] = 50 mg/kg/d for 14 days by gavage in sesame oil

| SMILES | IC50 (P. falciparum W2) [nM] | IC90 (P. falciparum W2) [nM] | P. yoelii ED90 po [1] [mg/kg] | P. yoelii ED90 sc [1] [mg/kg] | P. yoelii artesunate index sc [1] | outcome of combination with piperaquine (P. berghei ANKA strain) | IC50 (P. berghei sporozoites) [nM] | IC50 [2] [nM] | IC50 [3] [nM] | IC90 [3] [nM] | RI = IC50 for ARC08-22(4G)/IC50 for W2 [3] | neurotoxicity in vivo, effects observed [4, 12] | neurotoxicity in vivo, effects observed [4, 13] | mice surviving the infection, acute phase [5] | IC50 [7] [nM] | IC50 [8] [nM] | RI = IC50 W2/IC50 NF54 [8] | other results |
| --- | --- | --- | --- | --- | --- | --- | --- | --- | --- | --- | --- | --- | --- | --- | --- | --- | --- | --- |
| C[C@H]1[C@H](N2CCSCC2)O[C@@H]2O[C@@]3(C)CC[C@H]4[C@H](C)CC[C@@H]1[C@@]24OO3 [Artemiside 5, Artemiside] | 2.21 | 4.28 | 2.0 | 0.61 | 36.0 | survival of all mice, with no recrudescence taking place | 81.3 | 1.5 ± 0.5 | 2.43 | 4.85 | 1.1 | no effects were observed | neurotoxic sequelae including body weight loss, reduced motility, uncoordinated gait, and piloerection | 60% | 1.11 ± 0.17 | 1.75 ± 0.27 | 1.58 | outcome in cerebral malaria model (P. berghei ANKA strain; mice infected with P. berghei ANKA, artemiside 3 mg/kg/d ip for 4 days (days 2–5 post-infection)): complete cure; Maximum inhibition % P. berghei sporozoites (P. berghei sporozoites; at 5 µM): 99.05±1.34%; F% (oral bioavailability) [6]: 1% |
| C[C@H]1[C@H](N2CCS(=O)(=O)CC2)O[C@@H]2O[C@@]3(C)CC[C@H]4[C@H](C)CC[C@@H]1[C@@]24OO3 [Artemisone 7, Artemisone] | 1.69 | 3.42 | 5.0 | 3.9 | 5.6 | recrudescence with eventual mortality was observed | 28.3 | 42.4 ± 3.3 | 1.62 | 3.38 | 1.0 | no effects were observed | induced no effects | over 50% | 1.2 ± 0.4 | 1.6 ± 0.4 | 1.36 | IC50 (TM-C2B): 1.1 ± 0.4 nM; fold decrease in activity against late-stage gametocytes ([9]; late-stage vs early-stage gametocytes, p < 0.05): > 20 fold; Maximum inhibition % P. berghei sporozoites (P. berghei sporozoites; at 10 µM): 93.35±1.76%; IC50 [10]: 0.7 ± 0.2 nM; IC50 (D6 (CQ sensitive)): 1 ± 0.4 nM |
| C[C@H]1[C@H](N2CC[S+]([O-])CC2)O[C@@H]2O[C@@]3(C)CC[C@H]4[C@H](C)CC[C@@H]1[C@@]24OO3 [Artemisox 6, Artemisox] | – | – | – | – | – | – | – | – | – | – | – | – | – | – | – | – | – | IC50 ([9]; Plasmodium falciparum, NF54, 72 h): 2.7 nM; IC50 [9]: 2.72 ± 0.09 nM; IC50 ([11]; Plasmodium falciparum, NF54, 96 h, asexual blood stage Pf NF54, CQ sensitive, SYBR Green I, 96 h, ± SEM, read-out: IC50 NF54): 1.95 ± 0.25 nM; IC50 ([11]; Plasmodium falciparum, NF54, summary over NF54, K1 and W2 strains, read-out: IC50 against asexual Pf blood stage parasites): ~2 nM; IC50 ([11]; summary over NF54, K1 and W2 strains, read-out: IC50 against asexual Pf blood stage parasites): 1.5 to 2.6 nM |
